The target in one test is T1, SF3b complexes (Homo sapiens, UniProt O75533+Q7RTV0).
T1 construct: endogenous in cells
As to the kind of experiment: Scintillation proximity assay (SPA) with [3H]-labelled pladienolide probe. Format: binding. The conditions noted are these: wt SF3B1, read-out: SPA (wt SF3B1 cells) IC50. The essentials:
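SF3b complexes immunoprecipitated from nuclear extracts with anti-SF3B1 antibody on anti-mouse PVT SPA beads. Beads pre-incubated 30 min with varying PB or PB-OH, then 2.5 nM [3H]-PB added for 30 min; scintillation signal read and fit by non-linear regression.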
(In general: SPA uses beads or plates that emit light when radiolabelled molecules are held near them.)

Test [1] concerns WiDr cells (colon cancer cells; wildtype SF3B1). As to the kind of experiment: Cell viability assay (CellTiter-Glo, 72 hr), WiDr cells. Format: cell-based. The conditions noted are these: Homo sapiens; WiDr cells (wildtype SF3B1); read-out: WiDr GI50. An outline of the steps: (§1)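 Cells at 2000/well were exposed to 9 compound concentrations (0.1% DMSO) in duplicate or triplicate for 72 hr at 37 °C. ATP was read by CellTiter-Glo against a time-zero plate and DMSO control growth. Percent growth/viability was plotted against concentration to give Emax; negative values indicate lethality.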
In general terms: Cellular ATP, detected with luciferase, serves as a proxy for viable cell number.

The test system of test [2] is Panc 05.04 cells (pancreatic cancer cells; Q699H and K700E mutations in SF3B1). As to the kind of experiment: Cell viability assay (CellTiter-Glo, 72 hr), Panc 05.04 cells. Type of test: cell-based. The conditions noted are these: Panc 05.04 cells (mutant SF3B1); for Emax: maximum achievable response in tested dose range, negative value = cellular lethality, read-out: Panc 05.04 (mt SF3B1 cells) Emax (%); for GI50: read-out: Panc 05.04 (mt SF3B1 cells), GI50. An outline of the steps:
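Viability was read as ATP content (CellTiter-Glo) after 72 hr compound exposure of Panc 05.04 cells at 37 °C, nine concentrations, 0.1% DMSO. Percentage growth was referenced to time-zero and vehicle wells and plotted against concentration to obtain Emax; negative Emax denotes cell killing.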

Test [3] deals with WiDr-R cells (colon cancer cells; chemically-induced SF3B1 R1074H mutant). As to the kind of experiment: Cell viability assay (CellTiter-Glo, 72 hr), resistant WiDr-R cells (counter-screen). Type of test: cell-based. The conditions noted are these: WiDr-R cells (SF3B1 R1074H mutation, resistant); read-out: WiDr-R GI50. The essentials: as §1

For 25 compounds, IC50, GI50 and Emax results are on record in patent publication US11926619B2, “Certain pladienolide compounds and methods of use” (EISAI R&D MANAGEMENT CO., LTD., priority 2018, dated 2024).

Consider `C/C(=C\C=C\[C@H](C)c1ccccn1)[C@H]1OC(=O)C[C@H](O)CC[C@@](C)(O)[C@@H](OC(=O)N2CCN(C3CCCCCC3)CC2)/C=C/[C@@H]1C`, for which the IC50 at SF3b complexes came to 0.00595 µM. In addition, the results for the GI50 in test [1], in test [2] and in test [3] were 0.065 µM, 0.0718 µM and over 1 µM, respectively. The Emax in test [2] was -90%.
For `C/C(=C\C=C\C(C)c1ccnc(N(C)C)n1)[C@H]1OC(=O)C[C@H](O)CC[C@@](C)(O)[C@@H](OC(=O)N2CCN(C3CCCCCC3)CC2)/C=C/[C@@H]1C` (some centres unmarked) the same measures were 0.0161 µM, 0.0401 µM, 0.0983 µM, over 10 µM and -94.5%.
Take `C/C(=C\C=C\[C@@H](C)COC(=O)N1CC[C@@H](O)C1)[C@H]1NC(=O)CCCCC[C@@H](OC(=O)N2CCN(C)CC2)/C=C/[C@@H]1C`: the IC50 on SF3b complexes stood at 0.267 µM. The GI50 in test [1] was 0.376 µM; in test [2] it was 1.18 µM; in test [3] it was over 10 µM. In addition, in test [2], the Emax was 19.1%.
For `C/C(=C\C=C\[C@@H](C)COC(=O)N1CCCC12COC2)[C@H]1OC(=O)C[C@H](O)CC[C@@](C)(O)[C@@H](OC(=O)N2CCN(C)CC2)/C=C/[C@@H]1C` the same measures were 0.00956 µM, 0.0472 µM, 0.0315 µM, over 1 µM and 90.7%.
Consider `C/C(=C\C=C\[C@@H](C)COC(=O)N1CCCC1)[C@H]1OC(=O)CCCCC[C@@H](OC(=O)N(C)C)/C=C/[C@@H]1C`, for which the IC50 on SF3b complexes came to 0.0711 µM. In addition, the GI50 in test [1] was found to be 0.135 µM; in test [2], 0.156 µM; in test [3], 6.38 µM. In addition, the Emax in test [2] is -94.8%.
Taken in the same sequence, the figures for `C/C(=C\C=C\[C@H](C)c1ccccn1)[C@H]1OC(=O)C[C@H](O)CC[C@@](C)(O)[C@@H](OC(=O)N2CCN(C)CC2)/C=C/[C@@H]1C` were 0.00569 µM, 0.0343 µM, 0.0536 µM, over 1 µM and -49.2%.
Turning to `C/C(=C\C=C\[C@@H](C)COC(=O)N1CC[C@@H](C(=O)O)C1)[C@H]1OC(=O)C[C@H](O)CC[C@@](C)(O)[C@@H](OC(=O)N2CCN(C3CCCCCC3)CC2)/C=C/[C@@H]1C`, at SF3b complexes, the IC50 was found to be 0.00226 µM. Further, the GI50 in test [1] was 0.692 µM; in test [2], 0.108 µM; in test [3], over 1 µM. Further, the Emax in test [2] was -58.3%.
With `C/C(=C\C=C\[C@@H](C)COC(=O)N1CCCC1)[C@H]1OC(=O)C[C@H](O)CC[C@H](C)[C@@H](OC(=O)N2CCN(C)CC2)/C=C/[C@@H]1C`, on SF3b complexes, the IC50 was determined as 0.00296 µM. The results for the GI50 in test [1], in test [2] and in test [3] were 0.00381 µM, 0.00136 µM and over 1 µM, respectively. Moreover, the Emax in test [2] was -86%.
Taken in the same sequence, the figures for `C/C(=C\C=C\C(C)c1cnccn1)[C@H]1OC(=O)C[C@H](O)CC[C@@](C)(O)[C@@H](OC(=O)N2CCN(C3CCCCCC3)CC2)/C=C/[C@@H]1C` (some centres unmarked) were 0.00637 µM, 0.0319 µM, 0.0221 µM, over 10 µM and -93.7%.
Turning to `C/C(=C\C=C\C(C)c1cccnn1)[C@H]1OC(=O)C[C@H](O)CC[C@@](C)(O)[C@@H](OC(=O)N2CCN(C3CCCCCC3)CC2)/C=C/[C@@H]1C` (some centres unmarked), on SF3b complexes, the IC50 is 0.00338 µM. Moreover, the GI50 in test [1] was 0.0151 µM; in test [2] it was 0.022 µM; in test [3], over 1 µM. Also, the Emax in test [2] was -94.7%.
`C/C(=C\C=C\[C@@H](C)c1cccnc1)[C@H]1OC(=O)C[C@H](O)CC[C@@](C)(O)[C@@H](OC(=O)N2CCN(C3CCCCCC3)CC2)/C=C/[C@@H]1C`: the IC50 on SF3b complexes was determined as 0.00234 µM. Besides, the GI50 is 0.0132 µM in test [1], 0.011 µM in test [2] and over 1 µM in test [3]. Also, the Emax in test [2] was -95.6%.
As to `C/C(=C\C=C\C(C)c1cc(C)ccn1)[C@H]1OC(=O)C[C@H](O)CC[C@@](C)(O)[C@@H](OC(=O)N2CCN(C3CCCCCC3)CC2)/C=C/[C@@H]1C` (some centres unmarked), the IC50 at SF3b complexes was 0.00679 µM. For the same compound, the GI50 is 0.0587 µM in test [1], 0.0599 µM in test [2] and over 1 µM in test [3]. Moreover, the Emax in test [2] is -92.4%.
For `C/C(=C\C=C\[C@@H](C)Cn1cc(C2CC2)nn1)[C@H]1OC(=O)C[C@H](O)CC[C@@](C)(O)[C@@H](OC(=O)N2CCN(C3CCCCCC3)CC2)/C=C/[C@@H]1C` the same measures were 0.0141 µM, 0.0518 µM, 0.0386 µM, over 1 µM and -94.5%.
Taken in the same sequence, the figures for `C/C(=C\C=C\[C@@H](C)COC(=O)N1CC[C@@H](O)C1)[C@H]1OC(=O)C[C@H](O)CC[C@@](C)(O)[C@@H](OC(=O)N2CCN(C3CCCCCC3)CC2)/C=C/[C@@H]1C` were 0.00766 µM, 0.00556 µM, 0.00551 µM, over 1 µM and -84.5%.
For `C/C(=C\C=C\[C@@H](C)c1ccccn1)[C@H]1OC(=O)C[C@H](O)CC[C@@](C)(O)[C@@H](OC(=O)N2CCCN(C)CC2)/C=C/[C@@H]1C`, the IC50 on SF3b complexes is 0.00687 µM. For the same compound, the GI50 in test [1] was 0.0331 µM; in test [2], 0.0849 µM; in test [3], over 1 µM. The Emax in test [2] was -23.1%.
With `C/C(=C\C=C\[C@@H](C)COC(=O)N1CCCC1)[C@H]1OC(=O)CCCCC[C@@H](OC(=O)N2CCN(C)CC2)/C=C/[C@@H]1C`, the IC50 on SF3b complexes came to 0.00371 µM. Also, the GI50 in test [1] is 0.00784 µM; in test [2] it was 0.00674 µM; in test [3], 2.44 µM. Also, the Emax in test [2] was -90.5%.
Taken in the same sequence, the figures for `C/C(=C\C=C\[C@@H](C)c1ccccn1)[C@H]1OC(=O)C[C@H](O)CC[C@@](C)(O)[C@@H](OC(=O)N2CCN(C3CCC3)CC2)/C=C/[C@@H]1C` were 0.00723 µM, 0.0367 µM, 0.0389 µM, over 1 µM and -83.6%.
For `C/C(=C\C=C\[C@@H](C)c1ccccn1)[C@H]1OC(=O)C[C@H](O)CC[C@@](C)(O)[C@@H](OC(=O)N2CCN(C(C)C)CC2)/C=C/[C@@H]1C` the same measures were 0.00637 µM, 0.0318 µM, 0.0266 µM, over 1 µM and -90.1%.
`C/C(=C\C=C\[C@@H](C)CCC(=O)N1CCCC1)[C@H]1OC(=O)C[C@H](O)CC[C@@](C)(O)[C@@H](OC(=O)N2CCN(C3CCCCCC3)CC2)/C=C/[C@@H]1C`: the IC50 on SF3b complexes was 0.00511 µM. Besides, the GI50 in test [1] was 0.0127 µM; in test [2], 0.00325 µM; in test [3], over 1 µM. The Emax in test [2] was -86.9%.
As for `C/C(=C\C=C\C(C)c1ncccn1)[C@H]1OC(=O)C[C@H](O)CC[C@@](C)(O)[C@@H](OC(=O)N2CCN(C3CCCCCC3)CC2)/C=C/[C@@H]1C` (some centres unmarked), the IC50 on SF3b complexes came out at 0.0119 µM. Also, the GI50 in test [1] was 0.0459 µM; in test [2], 0.031 µM; in test [3], over 1 µM. Moreover, the Emax in test [2] is -91.6%.
On to `CC(=O)O[C@H]1/C=C/[C@H](C)[C@@H](/C(C)=C/C=C/[C@@H](C)COC(=O)N(C)C)OC(=O)C[C@H](O)CC[C@@]1(C)O`, for which the IC50 on SF3b complexes was 0.018 µM. Besides, the GI50 was 0.0467 µM in test [1], 0.0744 µM in test [2] and over 10 µM in test [3]. For the same compound, the Emax in test [2] is -91.2%.
Turning to `C/C(=C\C=C\[C@@H](C)COC(=O)N1CCCC1)[C@H]1OC(=O)CCCCC[C@@H](NC(=O)N2CCN(C)CC2)/C=C/[C@@H]1C`, on SF3b complexes, the IC50 worked out at 0.0144 µM. In addition, the GI50 in test [1] was 0.0185 µM; in test [2], 0.019 µM; in test [3] it was over 1 µM. Moreover, the Emax in test [2] was -93.6%.
Taken in the same sequence, the figures for `C/C(=C\C=C\[C@@H](C)COC(=O)N1CC[C@@H](O)C1)[C@H]1OC(=O)C[C@H](O)CC[C@H](C)[C@@H](OC(=O)N2CCN(C3CCCCCC3)CC2)/C=C/[C@@H]1C` were 0.00567 µM, 0.00827 µM, 0.0108 µM, over 1 µM and -77.8%.
As to `CCN(CC)C(=O)OC[C@H](C)/C=C/C=C(\C)[C@H]1OC(=O)C[C@H](O)CC[C@@](C)(O)[C@@H](OC(C)=O)/C=C/[C@@H]1C`, at SF3b complexes, the IC50 came to 0.0024 µM. The GI50 in test [1] was 0.0212 µM; in test [2], 0.025 µM; in test [3] it was over 10 µM. Besides, the Emax in test [2] was -92.2%.
Taken in the same sequence, the figures for `C/C(=C\C=C\[C@@H](C)COC(=O)N1CCC[C@H]1CO)[C@H]1OC(=O)CCCCC[C@@H](OC(=O)N2CCN(C)CC2)/C=C/[C@@H]1C` were 0.00361 µM, 0.00252 µM, 0.0029 µM, 0.423 µM and -62.8%.

As usually defined, the IC50 is the concentration that inhibits the measured activity by half. What is called GI50 is the concentration giving 50% growth inhibition.
